# Data published in US5114920A, “BU-3292T antibiotics” (priority 1988, dated 1992).
# Starred links: 1 amine or outer side, 2 acyl side, 3 side chain; linkers in the order of their positions; H or OH if unused. Positions of bridges follow the written chain, without caps; N, C: chain ends. Non-standard residues stand in square brackets, D forms with d. Residues, ends and D or L forms follow the SMILES beside them. Chains are numbered I, II in the order given. Actinocin(9to1) = Cc1c2oc3c(C)ccc(C(=O)[*:1])c3nc-2c(C(=O)[*:2])c(N)c1=O; X2 = CC1CCC(C(=O)[*:2])N1[*:1]; NMeV = CN[CH](C(=O)O)C(C)C; Sar = CNCC(=O)O
# What was measured:
# [1] = Body weight change in P388-bearing mice; conditions: QD × 3, ip
# Description: (§1) BU-3292T components A and B were tested for in vitro cytotoxicity against murine and human tumor cells and for in vivo antitumor activity in mice. Actinomycin D was used as a reference compound in both in vitro and in vivo experiments. B16-F10 (murine melanoma) and Moser (human colorectal carcinoma) cells were grown to the logarithmic phase in enriched Eagle minimum essential medium (MEM) supplemented with fetal calf serum (FCS, 10%) and kanamycin (60 mcg/ml), harvested and inoculated into wells of a 96-well microtiter plate with test materials at the concentrations of 3.0×10^4 and 6.0×10^4 cells/ml, respectively. They were incubated at 37° C. in humidified atmosphere of 5% CO2 and 95% air for 72 hours. The cytotoxic activity was determined colorimetrically at 540 nm after staining viable cells with neutral red. […] Inhibitory effects of BU-3292T component A on macromolecule (DNA, RNA and protein) synthesis were determined in vitro. Cultured L1210 murine leukemia cells (5×10^5 cells/ml) were incubated with test materials at 37° C. for 15 minutes and then further incubated for 60 minutes after the addition of labelled precursor, ^3 H-thymidine, ^14 C-uridine or ^3 H-leucine, into the cultured mixtures. After washing with chilled 5% trichloroacetic acid solution, the radioactivity incorporated into the acid-insoluble fraction of the tumor cells was determined in a liquid scintillation counter. […] In vivo antitumor activities of BU-3292T components A and B were tested in tumor-bearing female CDF mice. After the intraperitoneal implantation of diluted ascitic fluid with 1.0 ×10^6 lymphocytic leukemia P388 cells into the mice, test compounds were administered intraperitoneally once a day on days 1, 2 and 3 (QD×3).
# [2] = test system: Clostridium perfringens A9635; type: cell-based; conditions: GAM agar
# Solubility = type: physicochemical
# Excerpt: BU-3292T A is isolated as a white amorphous powder, while BU-3292T B is an orange-red powder. […] The compounds give positive responses to iodine and Rydone-Smith reagents, but negative responses to Sakaguchi, ferric chloride, ninhydrin and anthrone reagents. […] The IR spectra of BU-3292T A and B are illustrated in FIGS. 1 and 2, respectively.
# [3] = test system: Pseudomonas aeruginosa A9930; experiment: Antimicrobial activity, serial two-fold agar dilution method; type: cell-based; conditions: Nutrient agar
# Description: (§2) The antimicrobial activity of BU-3292T A and B was determined against aerobic and anaerobic bacteria and fungi by a serial two-fold agar dilution method. BU-3292T A and B are active against aerobic gram-positive bacteria, and weakly active against anaerobic gram-negative bacteria and fungi.
# [4] = test system: Streptococcus faecalis A9612; experiment: as above; type: cell-based; conditions: Nutrient agar
# Description: as §2
# [5] = test system: Bacillus subtilis PCI-219; experiment: as above; type: cell-based; conditions: Nutrient agar
# Description: as §2
# [6] = test system: Bacteroides fragilis A22693; experiment: as above; type: cell-based; conditions: GAM agar
# Description: as §2
# [7] = test system: Candida albicans IAM 4888; experiment: as above; type: cell-based; conditions: Sabouraud dextrose agar
# Description: as §2
# Escherichia coli NIHJ = experiment: as above; type: cell-based; conditions: Nutrient agar
# Description: as §2
# Mucor spinosus IFO 5317 = experiment: as above; type: cell-based
# Description: as §2
# [8] = test system: Trichophyton mentagrophytes D155; experiment: as above; type: cell-based; conditions: Sabouraud dextrose agar
# Description: as §2
# [9] = test system: Fusarium moniliforme A2284; experiment: as above; type: cell-based; conditions: Sabouraud dextrose agar
# Description: as §2
# [10] = test system: Staphylococcus aureus smith; experiment: as above; type: cell-based; conditions: Nutrient agar
# Description: as §2
# Micrococcus luteus 1001 = experiment: as above; type: cell-based; conditions: Nutrient agar
# Description: as §2
# [11] = test system: Propionibacterium anaerobius A21905; experiment: as above; type: cell-based; conditions: GAM agar
# Description: as §2
# Proteus vulgalis A9436 = experiment: as above; type: cell-based; conditions: Nutrient agar
# Description: as §2
# Proteus mirabilis A9554 = experiment: as above; type: cell-based; conditions: Nutrient agar
# Description: as §2
# [12] = test system: Clostridium difficile A21675; experiment: as above; type: cell-based; conditions: GAM agar
# Description: as §2
# [13] = test system: Cryptococcus neoformans IAM 4519; experiment: as above; type: cell-based; conditions: Sabouraud dextrose agar
# Description: as §2
# [14] = test system: Klebsiella pneumoniae D11; experiment: as above; type: cell-based; conditions: Nutrient agar
# Description: as §2
# [15] = test system: Streptococcus pyogenes A20201; experiment: as above; type: cell-based; conditions: Nutrient agar
# Description: as §2
# [16] = test system: Staphylococcus aureus 209P; experiment: as above; type: cell-based; conditions: Nutrient agar
# Description: as §2
# [17] = test system: Staphylococcus epidermidis D153; experiment: as above; type: cell-based; conditions: Nutrient agar
# Description: as §2
# [18] = test system: Propionibacterium acnes A21933; experiment: as above; type: cell-based; conditions: GAM agar
# Description: as §2
# [19] = test system: Aspergillus fumigatus IAM 2530; experiment: as above; type: cell-based; conditions: Sabouraud dextrose agar
# Description: as §2
# [20] = test system: B16-F10 (murine melanoma) cells; experiment: In vitro cytotoxicity, neutral red staining; type: cell-based
# Description: as §1
# [21] = test system: Moser (human colorectal carcinoma) cells; experiment: In vitro cytotoxicity, neutral red staining; type: cell-based; conditions: 72 hours
# Description: as §1
# [22] = test system: lymphocytic leukemia P388; experiment: Antitumor activity against P388 leukemia (ip); type: in vivo, mice; conditions: for MST (Median survival time) / T/C: QD × 3, ip
# Description: as §1
# [23] = test system: aerobic gram-positive bacteria; experiment: Antimicrobial activity, agar dilution, summary in words; type: cell-based; conditions: summary of Table 6
# Description: as §2
# [24] = test system: anaerobic gram-negative bacteria and fungi; experiment: as above; type: cell-based; conditions: summary of Table 6
# Description: as §2
# gram-negative bacteria = experiment: as above; type: cell-based; conditions: summary of Table 6
# Description: as §2
smiles,measurement,setting,value
"Cc1c2oc3c(C)ccc(C(=O)NC4C(=O)NC(C(C)C)C(=O)N5C(C)CCC5C(=O)N(C)CC(=O)N(C)C(C(C)C)C(=O)OC4C)c3nc-2c(C(=O)NC2C(=O)NC(C(C)C)C(=O)N3C(C)CCC3C(=O)N(C)CC(=O)N(C)C(C(C)C)C(=O)OC2C)c(N)c1=O (centres unmarked) [BU-3292T B] (I: TV[X2][Sar][NMeV] / II: TV[X2][Sar][NMeV]; ester I:1-I:C, II:1-II:C; linker I:N-II:N via Actinocin(9to1); configuration not given here)",Body weight change on day 4,[1]; 0.003 mg/kg/day,+1.0 g
same,Body weight change on day 4,[1]; 0.01 mg/kg/day,+1.0 g
same,Body weight change on day 4,[1]; 0.03 mg/kg/day,+1.0 g
same,Body weight change on day 4,[1]; 0.1 mg/kg/day,-1.0 g
same,Body weight change on day 4,[1]; 0.3 mg/kg/day,-3.3 g
same,MIC,[2],25 mg/L
same,"solubility in dimethyl sulfoxide, dimethylformamide, methanol, ethyl acetate and chloroform","Solubility; dimethyl sulfoxide, dimethylformamide, methanol, ethyl acetate, chloroform",readily soluble
same,solubility in water and other organic solvents,Solubility; water and other organic solvents,insoluble
same,MIC,[3],> 100 mg/L
same,MIC,[4],0.8 mg/L
same,MIC,[5],0.8 mg/L
same,MIC,[6],> 100 mg/L
same,MIC,[7],> 100 mg/L
same,MIC,Escherichia coli NIHJ,> 100 mg/L
same,MIC,"Mucor spinosus IFO 5317; Mucor spinosus IFO 5317, Sabouraud dextrose agar",25 mg/L
same,MIC,Mucor spinosus IFO 5317; in vitro against Mucor spinosus IF05317,25 mg/L
same,MIC,[8],> 100 mg/L
same,MIC,[9],50 mg/L
same,MIC,[10],1.6 mg/L
same,MIC,Micrococcus luteus 1001,0.4 mg/L
same,MIC,[11],6.3 mg/L
same,MIC,Proteus vulgalis A9436,> 100 mg/L
same,MIC,Proteus mirabilis A9554,> 100 mg/L
same,MIC,[12],> 100 mg/L
same,MIC,[13],> 100 mg/L
same,MIC,[14],100 mg/L
same,MIC,[15],0.8 mg/L
same,MIC,[16],1.6 mg/L
same,MIC,[17],1.6 mg/L
same,MIC,[18],12.5 mg/L
same,MIC,[19],> 100 mg/L
same,IC50,"[20]; B16-F10, 72 hours",< 0.00016 mg/L
same,times stronger against B16-F10 cells than against Moser cells,"[20]; cytotoxic activity, B16-F10 versus Moser",~400 times
same,IC50,[21],0.06 mg/L
same,MST (Median survival time),[22]; 0.003 mg/kg/day,11.0 days
same,T/C,[22]; 0.003 mg/kg/day,110%
same,MST (Median survival time),[22]; 0.01 mg/kg/day,12.0 days
same,T/C,[22]; 0.01 mg/kg/day,120%
same,MST (Median survival time),[22]; 0.03 mg/kg/day,14.0 days
same,T/C,[22]; 0.03 mg/kg/day,140%
same,MST (Median survival time),[22]; 0.1 mg/kg/day,16.0 days
same,T/C,[22]; 0.1 mg/kg/day,160%
same,MST (Median survival time),[22]; 0.3 mg/kg/day,8.0 days
same,T/C,[22]; 0.3 mg/kg/day,80%
same,MST (Median survival time),[22]; 1 mg/kg/day,Tox
same,T/C,[22]; 1 mg/kg/day,Tox
same,maximum T/C value,"[22]; anti-P388 leukemic activity, QD×3, ip",160%
same,activity against aerobic gram-positive bacteria,[23],active
same,activity against anaerobic gram-negative bacteria and fungi,[24],weakly active
same,activity against gram-negative bacteria,gram-negative bacteria,inactive
